According to patent US11807644B2 (PMV Pharmaceuticals, Inc., priority 2020, dated 2023):

Each molecule was assayed against T1, recombinant His-tag Y220C p53 DBD protein (Homo sapiens, UniProt P04637, Y220C) (assay: In vitro DNA binding activity assay (TR-FRET): binding of His-tag Y220C p53 DBD to biotin-labeled consensus DNA). Conditions: SC150 = concentration to increase DNA binding by […], His-tag Y220C p53 DBD, biotin-labeled consensus DNA.
T1 construct: recombinant His-tag Y220C p53 DBD protein (amino acids #˜94-312)
Type: biochemical

Y220C SC150 (μM), * (* = 0 μM ≤ SC150 < 0.1 μM):
Cn1cc(C(=O)NCc2nc(-c3cc4c(N[C@H]5CCN(C(C)(C)C)C[C@H]5F)cccc4n3CC(F)(F)F)no2)cn1 [Compound 406B, N-{[3-(4-{[(3R,4S)-1-tert-butyl-3-fluoropiperidin-4-yl]amino}-1-(2,2,2-trifluoroethyl)-1H-indol-2-yl)-1,2,4-oxadiazol-5-yl]methyl}-1-methyl-1H-pyrazole-4-carboxamide]
CC1(n2ccc(C(=O)NCc3nc(-c4cc5c(N[C@H]6CCNC[C@H]6F)cccc5n4CC(F)(F)F)no3)c2)CCOCC1 [Compound 478B, N-{[3-(4-{[(3R,4S)-3-fluoropiperidin-4-yl]amino}-1-(2,2,2-trifluoroethyl)-1H-indol-2-yl)-1,2,4-oxadiazol-5-yl]methyl}-1-(4-methyloxan-4-yl)-1H-pyrrole-3-carboxamide]
CN1CC[C@@H](Nc2cccc3c2cc(-c2noc(CNC(=O)c4cnn(C5COC5)c4)n2)n3CC(F)(F)F)[C@@H](F)C1 [Compound 372B, N-{[3-(4-{[(3S,4R)-3-fluoro-1-methylpiperidin-4-yl]amino}-1-(2,2,2-trifluoroethyl)-1H-indol-2-yl)-1,2,4-oxadiazol-5-yl]methyl}-1-(oxetan-3-yl)-1H-pyrazole-4-carboxamide]
CC(C)(C)n1ccc(C(=O)NCc2nc(-c3cc4c(N[C@@H]5CCOC[C@@H]5F)cccc4n3CC(F)(F)F)no2)c1 [Compound 493B, 1-tert-butyl-N-{[3-(4-{[(3R,4R)-3-fluorooxan-4-yl]amino}-1-(2,2,2-trifluoroethyl)-1H-indol-2-yl)-1,2,4-oxadiazol-5-yl]methyl}-1H-pyrrole-3-carboxamide]
COCC1(n2ccc(C(=O)NCc3nc(-c4cc5c(N[C@@H]6CCN(C)C[C@@H]6C)cccc5n4CC(F)(F)F)no3)c2)CC1 [Compound 504B, N-{[3-(4-{[(3S,4R)-1,3-dimethylpiperidin-4-yl]amino}-1-(2,2,2-trifluoroethyl)-1H-indol-2-yl)-1,2,4-oxadiazol-5-yl]methyl}-1-[1-(methoxymethyl)cyclopropyl]-1H-pyrrole-3-carboxamide]
CN1CC[C@@H](Nc2cccc3c2cc(-c2noc(CN(C)c4cn[nH]c4)n2)n3CC(F)(F)F)[C@@H](F)C1 (racemic) [Compound 192B, (+/−)-N-[(3R,4S)-3-fluoro-1-methylpiperidin-4-yl]-2-(5-{[methyl(1H-pyrazol-4-yl)amino]methyl}-1,2,4-oxadiazol-3-yl)-1-(2,2,2-trifluoroethyl)-1H-indol-4-amine]
CN1CC[C@@H](Nc2cccc3c2cc(-c2noc(CNC(=O)c4ccn([C@H]5CC[C@](C)(O)C5)c4)n2)n3CC(F)(F)F)[C@@H](F)C1 (stereo in doubt) [Compound 373B, Trans-N-{[3-(4-{[(3S,4R)-3-fluoro-1-methylpiperidin-4-yl]amino}-1-(2,2,2-trifluoroethyl)-1H-indol-2-yl)-1,2,4-oxadiazol-5-yl]methyl}-1-[(1R,3R)-3-hydroxy-3-methylcyclopentyl]-1H-pyrrole-3-carboxamide]
C[C@@H]1CN(C)CC[C@@H]1Nc1cccc2c1cc(-c1noc(CNC(=O)c3ccn(C(C)(C)C)c3)n1)n2CC(F)(F)F [Compound 513B, 1-tert-butyl-N-{[3-(4-{[(3R,4S)-1,3-dimethylpiperidin-4-yl]amino}-1-(2,2,2-trifluoroethyl)-1H-indol-2-yl)-1,2,4-oxadiazol-5-yl]methyl}-1H-pyrrole-3-carboxamide]
CN1CC[C@@H](Nc2cccc3c2cc(-c2nnc(CNC(=O)c4ccn(C(C)(C)C)c4)s2)n3CC(F)(F)F)[C@@H](F)C1 [Compound 286B, 1-tert-butyl-N-{[5-(4-{[(3S,4R)-3-fluoro-1-methylpiperidin-4-yl]amino}-1-(2,2,2-trifluoroethyl)-1H-indol-2-yl)-1,3,4-thiadiazol-2-yl]methyl}-1H-pyrrole-3-carboxamide]
Cc1cscc1C(=O)NCc1nc(-c2cc3c(N[C@@H]4CCN(C)C[C@@H]4F)cccc3n2CC(F)(F)F)no1 [Compound 209B, N-{[3-(4-{[(3S,4R)-3-fluoro-1-methylpiperidin-4-yl]amino}-1-(2,2,2-trifluoroethyl)-1H-indol-2-yl)-1,2,4-oxadiazol-5-yl]methyl}-4-methylthiophene-3-carboxamide]
COCC1(n2ccc(C(=O)NCc3nc(-c4cc5c(N[C@@H]6CCOC[C@@H]6F)cccc5n4CC(F)(F)F)no3)c2)CC1 [Compound 495B, N-{[3-(4-{[(3R,4R)-3-fluorooxan-4-yl]amino}-1-(2,2,2-trifluoroethyl)-1H-indol-2-yl)-1,2,4-oxadiazol-5-yl]methyl}-1-[1-(methoxymethyl)cyclopropyl]-1H-pyrrole-3-carboxamide]
COC(C)(C)c1cc(C(=O)NCc2nc(-c3cc4c(N[C@@H]5CCN(C)C[C@@H]5F)cccc4n3CC(F)(F)F)no2)cs1 [Compound 447B, N-{[3-(4-{[(3S,4R)-3-fluoro-1-methylpiperidin-4-yl]amino}-1-(2,2,2-trifluoroethyl)-1H-indol-2-yl)-1,2,4-oxadiazol-5-yl]methyl}-5-(2-methoxypropan-2-yl)thiophene-3-carboxamide]
CN1CC[C@@H](Nc2cccc3c2cc(-c2noc(CNC(=O)c4ccn(CC(=O)O)c4)n2)n3CC(F)(F)F)[C@@H](F)C1 [Compound 238B, 2-[3-({[3-(4-{[(3S,4R)-3-fluoro-1-methylpiperidin-4-yl]amino}-1-(2,2,2-trifluoroethyl)-1H-indol-2-yl)-1,2,4-oxadiazol-5-yl]methyl}carbamoyl)-1H-pyrrol-1-yl]acetic acid]
CN1CC[C@@H](Nc2cccc3c2cc(-c2noc(CNC(=O)c4ccn(C5CCCC5F)c4)n2)n3CC(F)(F)F)[C@@H](F)C1 (stereo in doubt) [Compound 392B, N-{[3-(4-{[(3S,4R)-3-fluoro-1-methylpiperidin-4-yl]amino}-1-(2,2,2-trifluoroethyl)-1H-indol-2-yl)-1,2,4-oxadiazol-5-yl]methyl}-1-[(1R,2R)-2-fluorocyclopentyl]-1H-pyrrole-3-carboxamide]

Y220C SC150 (μM), **** (**** = 1 μM ≤ SC150 < 10 μM):
O=S1(=O)CCC(Nc2cccc3c2cc(-c2cnn(Cc4cccnc4)c2)n3CC(F)(F)F)CC1 [Compound 16B, 4-[(2-{1-[(pyridin-3-yl)methyl]-1H-pyrazol-4-yl}-1-(2,2,2-trifluoroethyl)-1H-indol-4-yl)amino]-1λ^6-thiane-1,1-dione]

Same assay, conditions: concentration to increase DNA binding by […], incubated at either 27° C. or 29° C. for 60 min

SC150 (μM), ++ (++ = 2 μM ≤ SC150 < 5 μM):
CN(C)c1cccc(-c2cc3c(NC4CCS(=O)(=O)CC4)cccc3n2CC(F)(F)F)c1 [Compound 21A, 4-({2-[3-(dimethylamino)phenyl]-1-(2,2,2-trifluoroethyl)-1H-indol-4-yl}amino)-1λ^6-thiane-1,1-dione]
